Here are results for 1 compound from US11963962B2, “Platelet count-agnostic methods of treating myelofibrosis” (Sierra Oncology, Inc., priority 2018, dated 2024).

Common to all, as to assay type: in vivo, human
In data set [1] the test system is myelofibrosis. Nature of the data set: SIMPLIFY-1 dynamic and time-to-event analyses of RBC transfusions. An excerpt:
The SIMPLIFY-1 (S1) trial, a double-blind, active-controlled Phase 3 study in which 432 patients received randomized treatment with MMB or RUX for 24 weeks was previously reported (Mesa R A, Kiladjian J J, Catalano J V. et al. “Simplify-1: A phase III randomized trial of momelotinib versus ruxolitinib in j anus kinase inhibitor—naïve patients with myelofibrosis”, Journal of Clinical Oncology, 2017; 35:3844-50).
Since transfusion burden is of significant concern to clinicians and patients, to better understand the dynamics of RBC transfusions we further examined the S1 data through statistical models utilizing a variety of novel anemia benefit endpoints including time until transfusion and overall intensity of transfusions across time. The proportions of patients with 0 and 4 transfusions were calculated and time-to-event analyses examining time-to-first and time-to-fifth units transfused also conducted. Since transfusions typically comprise 2 units, the fifth unit transfused represents a de facto third transfusion event. The number of units transfused were also considered to be recurrent events and examined with and without patients' baseline characteristics as covariates. Finally, a mixture model, based on a zero-inflated negative binomial (ZINB) distribution fit to the transfusion data, was employed to compare between the treatment groups the proportions of subjects with zero transfusion burden and the mean transfusion rates.

Data set [2] relates to myelofibrosis. Nature of the data set: SIMPLIFY-2 Phase 3 trial: splenic response rate (SRR). To be noted: for SRR Absolute risk difference (Newcombe 95% CI): MMB vs Control. The source says:
(§1) In the SIMPLIFY-2 trial (NCT02101268), the efficacy and safety of MMB was studied in anemic or thrombocytopenic subjects with myelofibrosis who were previously treated with ruxolitinib (RUX). […] Specifically, anemic or thrombocytopenic myelofibrosis patients who had and were previously treated with (RUX) (for at least 28 days) were studied over 24 weeks for response to MMB versus best available treatment (BAT), primarily RUX (89% of patients) but alternatively no treatment or other standard interventions, after which period all patients could receive extended MMB treatment. Previously treated RUX patients who either required red blood cell transfusions or RUX dose reduction with grade 3 thrombocytopenia, anemia, and/or bleeding at grade 3 or worse, with palpable spleen of at least 5 cm and without grade 2 or greater peripheral neuropathy were included in the trial. There was no lower limit for the required baseline platelet count. The primary endpoint was a reduction by at least 35% in the spleen volume at 24 weeks compared with baseline.
FIG. 8A: SIMPLIFY-1 study of MMB in a first line population previously untreated with JAKi. For SIMPLIFY-1, the goal was non-inferiority over ruxolitinib (RUX) (MMB: N=215 subjects, and RUX: N=217 subjects). FIG. 8B: SIMPLIFY-2 study of second line population of anemic or thrombocytopenic subjects previously treated with RUX (red blood cell (RBC) transfusions on RUX=64%. RUX dose adjustment for: thrombocytopenia=21%; anemia/hematoma=35%). For SIMPLIFY-2, the goal was superiority over best available treatment (BAT) (MMB: N=104 subjects, and BAT: N=52 subjects). In both SIMPLIFY-1 and SIMPLIFY: Primary endpoint: >=35% reduction in spleen volume at 24 weeks. Secondary endpoints: Total symptom score (TSS) response at 24 weeks. Effects on RBC transfusion requirements.
The SIMPLIFY 2 clinical trial data was reanalyzed for subgroups of subjects having particular baseline platelet counts in the MMB versus BAT arms of the study.
Patient data was analyzed according to the following baseline platelet count (PLT) subgroups and in particular according to a threshold PLT of 150×10^9/L: 1) PLT<50×10^9/L; 2) 50×10^9/L≤PLT<100×10^9/L; 3) 100×10^9/L≤PLT<150×10^9/L. The reanalyzed data is presented in Table 14 (SIMPLIFY 2).

The subject of data set [3] is myelofibrosis. Nature of the data set: SIMPLIFY-2 Phase 3 trial: overall survival.
From the text: as §1

Data set [4] relates to myelofibrosis. Briefly: Combined analysis of TI response in TD patients from SIMPLIFY-1, SIMPLIFY-2 and '1672. To be noted: combined TD patients from SIMPLIFY-1, SIMPLIFY-2 and '1672 (n=152). An excerpt:
This aggregate data is representative of a continuum of Intermediate/High Risk MF patients.

In data set [5] the test system is myelofibrosis. Briefly: SIMPLIFY-1 Phase 3 trial: safety (anemia, platelet counts, hemoglobin). The method, then: In the SIMPLIFY-1 trial (NCT01969838), the efficacy and safety of MMB versus ruxolitinib (RUX) was studied in patients with myelofibrosis who were naïve to treatment with a JAK inhibitor and a platelet count of ≥50×10^9/L. Patients (N=432) with high risk or intermediate-2 risk or symptomatic intermediate-1 risk myelofibrosis received 24 weeks of treatment with 200 mg MMB once daily or 20 mg RUX twice a day (or per label), after which all patients could receive open-label momelotinib. […] The primary endpoint was a reduction by at least 35% in the spleen volume at 24 weeks compared with baseline.
The mean platelet count for RUX patients is demonstrably lower than the mean platelet count for MMB patients.
The MMB subjects were thus at lower risk of developing thrombocytopenia (e.g., Grade 3 or 4 thrombocytopenia), or of having to undergo undesirable dose reduction because they were able to largely maintain their platelet counts during therapy.

Setting [6] is: SIMPLIFY-1, 24 week randomized treatment period.

Regarding `Cl.N#CCNC(=O)c1ccc(-c2ccnc(Nc3ccc(N4CCOCC4)cc3)n2)cc1` [MMB, N-(cyanomethyl)-4-(2-(4-morpholinophenylamino)pyrimidin-4-yl)benzamide], in the data set with myelofibrosis [1] (setting [6]), the “Kaplan-Meier estimate of the proportion of patients who did not require any units transfused” value is 73% and the “proportion of patients requiring 4 or fewer units” value stood at 83%. For the same compound, the “factor of increase of the odds of having zero units transfused” value with myelofibrosis [1] (SIMPLIFY-1, first 24 weeks, ZINB covariate model, MMB vs RUX) is given as 9.3. Besides, the “hazard ratio, units transfused as recurrent events” value in the data set with myelofibrosis [1] (SIMPLIFY-1, MMB vs RUX, models with and without baseline covariates) came out at 0.522. Also, in the data set on myelofibrosis [2] (50 ≤ PLT < 100 ×10^9/L), the “SRR Responders” value worked out at 1, the “SRR proportion (Wilson 95% CI)” value was determined as 0.03 and the “SRR Absolute risk difference (Newcombe 95% CI)” value is −0.02. In addition, in the data set on myelofibrosis [2] (100 ≤ PLT < 150 ×10^9/L), the “SRR Responders” value was found to be 3, the “SRR proportion (Wilson 95% CI)” value was found to be 0.13 and the “SRR Absolute risk difference (Newcombe 95% CI)” value was 0.03. Moreover, in the data set on myelofibrosis [2] (ITT), the “SRR Responders” value was 7, the “SRR proportion (Wilson 95% CI)” value is recorded as 0.07 and the “SRR Absolute risk difference (Newcombe 95% CI)” value was 0.01. Further, in the data set with myelofibrosis [2] (PLT < 50 ×10^9/L), the “SRR Responders” value is recorded as 0 and the “SRR proportion (Wilson 95% CI)” value is given as 0.00. Besides, the mOS in the data set with myelofibrosis [3] is 28 months. Also, in the data set with myelofibrosis [4], the “≥8 week transfusion independence rate” value is recorded as 48.7% and the “≥12 week transfusion independence rate” value worked out at 44.1%. Moreover, in the data set with myelofibrosis [5] (SIMPLIFY 1), the anemia rate is given as 14% and the “≥Grade 3 anemia rate” value is recorded as 6%. Besides, the “platelet counts during treatment” value in the data set with myelofibrosis [5] (SIMPLIFY 1, 24 week double blind phase, FIGS. 31-33) is given as “able to maintain platelet levels”. In addition, the hemoglobin change result with myelofibrosis [5] (SIMPLIFY 1, after initiating MMB, FIG. 10) was “rapid and sustained hemoglobin improvement”.
